This note sets out measurements from patent US8148387B2, “AKT and P70 S6 kinase inhibitors” (Eli Lilly and Company, priority 2008, dated 2012).

The test system of assay [1] is phosphorylated GSK3β serine 9 (pGSK3β). As to the kind of experiment: AlphaScreen SureFire detection of pGSK3β in U87MG cells. The note with it: Homo sapiens, U-87 MG, 1 hour. In kind it is cell-based. How it is done:
The effect of compounds on the formation of endogenous phosphorylated S6 ribosomal protein serine 240/244 (pS6) and phosphorylated GSK3β serine 9 (pGSK3β) are measured using the AlphaScreen SureFire® for either pS6 (TGR Biosciences, TGRS6P2S10K) or pGSK3β(TGRGBS10K). This is a homogeneous assay format using immuno-sandwich capture of the phosphorylated analyte followed by detection using antibody-coated Alphascreen beads to generate an amplified signal.
U87MG cells are maintained in U87MG growth medium consisting of DMEM supplemented with 10% Fetal bovine serum (FBS), 1% Nonessential amino acids and 1% sodium pyruvate. For the assay, cells are harvested by standard procedures and then counted using Vi-Cell. Cells (50,000/well) are plated in 100 μL of U87MG growth medium into Costar #3596 96 well plates. […]
On the day of the assay, cells are treated with 20 μL/well compound diluted in media containing 6% DMSO. […] The plate is sealed with foil, incubated at RT for 4 hours with gentle shaking and then read on Perkin Elmer EnVision equipped with a TurboModule using standard AlphaScreen® settings (Ex680nm and Em520-620nm). The percent inhibition determined from controls on each plate and ten-point compound concentration data are then fit to a four-parameter logistic equation using ACTIVITYBASE 4.0 (Assay Guidance Manual Version 5.0, 2008, Eli Lilly and Company and NIH Chemical Genomics Center).
A general note: In Alpha technology, singlet oxygen from a donor bead excites a nearby acceptor bead.

In assay [2] the test system is Phosphorylation of p70 S6K(T389). As to the kind of experiment: p70 S6K/AKT In Vivo Target Inhibition, U87MG xenograft, p-p70 S6K. Also on record: species or system athymic nude mice. The note with it: Mus musculus, U-87 MG, IV Dose 12.5 mpk, U87MG tumors. How it is done: (§1) U87MG human glioblastoma cells (5×106) are subcutaneously implanted into the flank of athymic nude mice in 0.2 mL of matrigel. Two weeks post-implantation, mice are dosed orally or parenterally according to a time course, single dose/single time point, or dose response protocol for the determination of TMED50 (threshold minimum effective dose). Tumors are flash frozen at harvest and blood is collected for the determination of parent compound plasma exposure and the calculation of TMEC50 (threshold minimum effective concentration) in the case of dose response studies. Tumors or tissues are pulverized in liquid N2 and lysed in 400 μL of XY Lysis Buffer (10 μg/mL Leupeptin, 10 μg/mL Trypsin-Chymotrypsin Inhibitor, 10 μg/mL Tosyl phenyl-alanyl chloromethyl ketone, 10 μg/mL Aprotinin, 60 mM Beta-Glycerol Phosphate, 1% Triton X100, 25 mM Tris pH 7.5, 2.5 mM Pyrophosphate, 150 mM NaCl, 2 mM p-tosyl-L-arginine methyl ester, 15 mM para-nitrophenyl phosphate, 5 mM Benzamidine, 1 mM Na Vanadate, 10 mM NaF, 50 μg/mL phenyl-methane sulfonyl fluoride, 1 mM 1,4-Dithiothreitol (DTT), 15 mM EDTA pH 8.0, 5 mM EGTA pH 8.0, 1 μM Microcystin, 1 μM Okadaic Acid, and 1 Roche Complete protease inhibitor mini-tablet per 10 mL) using Lysing Matrix D tubes (MP Biomedicals, Solon, Ohio, cat#6913-500) and a BIO101 Thermo Savant Fast Prep FP12. Lysates are aliquoted and either assayed immediately or stored at −80° C. for later testing. In Vivo Target Inhibition of p70 S6K and AKT is measured utilizing Meso Scale Discovery (Gaithersburg, Md.) ELISA technology to assess effects on phosphorylation of the serine 240/244 site of the downstream effector S6RP. Phosphorylation of p70 S6K(T389), AKT(5473) and GSK3β(S9) is also assessed using this technology in a multiplex format. In summary, 20 μg of lysate is added to carbon electrode containing 96-well plates pre-spotted with the appropriate capture antibodies. The protein of interest is probed using a ruthenium labeled detection antibody. Upon the passage of current over the electrode in the presence of read buffer containing the co-reactant TPA, electro-chemiluminescence results in the generation of light which is quantified and recorded using the MSD Sector 6000 instrument. For each study, percent inhibitions are calculated relative to the vehicle control group and ANOVA analysis is performed using the JMP software package for the determination of statistical significance.

The next assay relates to pAKT S473. The assay can be described thus: p70 S6K/AKT In Vivo Target Inhibition, U87MG xenograft, pAKT. The note with it: Mus musculus, U-87 MG, IV Dose 12.5 mpk, U87MG tumors. Also on record: species or system athymic nude mice. How it is done:
as §1

The IC50 is the concentration at which inhibition is half-maximal. A low value points to greater potency. The inhibition is the change of the read-out against control, counted positive when it falls. `CN(C)CCn1cc(-c2ccc(F)c(C(F)(F)F)c2)nc1C1CCN(c2ncnc3c2C(C)(C)C(=O)N3)CC1` [Example 31] had a half-inhibitory concentration (IC50) in assay [1] of 331 nM. The inhibition at 12.5 mg/kg turned out to be 77.3% in assay [2] (1 hr post IV dose); 76.1% in assay [2] (2 hr post IV dose); 76.1% in assay [2] (4 hr post IV dose); 76.1% in assay [2] (6 hr post IV dose); 70.7% in assay [2] (8 hr post IV dose); 61.6% in assay [2] (24 hr post IV dose). Besides, the inhibition at 12.5 mg/kg with pAKT S473 (1 hr post IV dose) is 4%; in the assay with pAKT S473 (2 hr post IV dose) it was -22.3%; in the assay on pAKT S473 (4 hr post IV dose) it was -19.2%; in the assay with pAKT S473 (6 hr post IV dose), -26.3%; in the assay on pAKT S473 (8 hr post IV dose), -9.4%; in the assay on pAKT S473 (24 hr post IV dose), 22.6%.
